# Measured values as given in ChEMBL document CHEMBL1156041, “Synthesis and antifungal activity of benzo[d]oxazole-4,7-diones” (2009).
# Tests used:
# Type in all cases: functional
# Candida tropicalis = test: Antifungal activity against Candida tropicalis Berkout KCCM 50662 after 1 day by twofold broth dilution method; details: KCCM 50662, 24 h
# Candida albicans = test: Antifungal activity against Candida albicans Berkout KCCM 50235 after 1 day by twofold broth dilution method; details: KCCM 50235, 24 h
# Pichia kudriavzevii = test: Antifungal activity against Candida krusei Berkout KCCM 11655 after 1 day by twofold broth dilution method; details: KCCM 11655, 24 h
# Cryptococcus neoformans = test: Antifungal activity against Cryptococcus neoformans KCCM 50564 after 1 day by twofold broth dilution method; details: KCCM 50564, 24 h
# Aspergillus niger = test: Antifungal activity against Aspergillus niger KCTC 1231 after 2 days by twofold broth dilution method; details: KCTC 1231, 48 h
# Aspergillus flavus = test: Antifungal activity against Aspergillus flavus KCCM 11899 by twofold broth dilution method
SMILES,MIC (Candida tropicalis),MIC (Candida albicans),MIC (Pichia kudriavzevii),MIC (Cryptococcus neoformans),MIC (Aspergillus niger),MIC (Aspergillus flavus)
CCc1nc2c(N)cccc2o1,50 µg/mL,> 100 µg/mL,100 µg/mL,100 µg/mL,> 100 µg/mL,> 100 µg/mL
CCc1nc2c(o1)C(=O)C(Nc1ccc(Cl)cc1)=C(Br)C2=O,25 µg/mL,6.3 µg/mL,6.3 µg/mL,6.3 µg/mL,3.2 µg/mL,3.2 µg/mL
CCc1nc2c(o1)C(=O)C(Nc1ccc(I)cc1)=C(Br)C2=O,6.3 µg/mL,6.3 µg/mL,3.2 µg/mL,3.2 µg/mL,6.3 µg/mL,3.2 µg/mL
CCc1nc2c(o1)C(=O)C(Nc1cccc(Cl)c1)=C(Br)C2=O,6.3 µg/mL,6.3 µg/mL,6.3 µg/mL,3.2 µg/mL,3.2 µg/mL,3.2 µg/mL
CCc1nc2c(o1)C(=O)C(Nc1ccc(OC)cc1)=C(Br)C2=O,12.5 µg/mL,6.35 µg/mL,1.6 µg/mL,3.2 µg/mL,3.2 µg/mL,6.3 µg/mL
CCc1nc2c(o1)C(=O)C(Sc1ccc(Br)c(Br)c1)=C(Sc1ccc(Br)c(Br)c1)C2=O,50 µg/mL,50 µg/mL,12.5 µg/mL,12.5 µg/mL,25 µg/mL,25 µg/mL
CCc1nc2c(o1)C(=O)C(Nc1ccc(Br)cc1)=C(Br)C2=O,3.2 µg/mL,0.8 µg/mL,3.2 µg/mL,1.6 µg/mL,0.8 µg/mL,1.6 µg/mL
CCc1nc2c(o1)C(=O)C(Nc1cccc(C#N)c1)=C(Br)C2=O,6.3 µg/mL,12.5 µg/mL,50 µg/mL,12.5 µg/mL,12.5 µg/mL,6.3 µg/mL
CCc1nc2c(o1)C(=O)C(Nc1ccc(O)cc1)=C(Br)C2=O,12.5 µg/mL,50 µg/mL,25 µg/mL,12.5 µg/mL,50 µg/mL,25 µg/mL
CCc1nc2c(o1)C(=O)C(Nc1cccc(O)c1)=C(Br)C2=O,6.3 µg/mL,50 µg/mL,25 µg/mL,25 µg/mL,50 µg/mL,25 µg/mL
CCc1nc2c(o1)C(=O)C(Nc1ccc(F)cc1)=C(Br)C2=O,6.3 µg/mL,12.5 µg/mL,6.3 µg/mL,6.3 µg/mL,6.3 µg/mL,3.2 µg/mL
CCc1nc2c(o1)C(=O)C(Nc1cccc(F)c1)=C(Br)C2=O,3.2 µg/mL,12.5 µg/mL,6.3 µg/mL,6.3 µg/mL,6.3 µg/mL,6.3 µg/mL
CCc1nc2c(o1)C(=O)C(Sc1ccc(CC)c(CC)c1)=C(Sc1ccc(CC)c(CC)c1)C2=O,25 µg/mL,12.5 µg/mL,50 µg/mL,25 µg/mL,25 µg/mL,25 µg/mL
CCc1nc2c(o1)C(=O)C(Sc1ccc(C)c(C)c1)=C(Sc1ccc(C)c(C)c1)C2=O,12.5 µg/mL,25 µg/mL,3.2 µg/mL,12.5 µg/mL,12.5 µg/mL,6.3 µg/mL
CCc1nc2c(o1)C(=O)C(Nc1ccccc1)=C(Br)C2=O,3.2 µg/mL,1.6 µg/mL,3.2 µg/mL,1.6 µg/mL,1.6 µg/mL,3.2 µg/mL
CCc1nc2c(o1)C(=O)C(Sc1ccccc1)=C(Sc1ccccc1)C2=O,12.5 µg/mL,12.5 µg/mL,12.5 µg/mL,12.5 µg/mL,12.5 µg/mL,12.5 µg/mL
CCc1nc2c(o1)C(=O)C(Nc1ccc(C#N)cc1)=C(Br)C2=O,50 µg/mL,50 µg/mL,50 µg/mL,25 µg/mL,25 µg/mL,25 µg/mL
Nc1nc(=O)[nH]cc1F [FLUCYTOSINE],3.2 µg/mL,3.2 µg/mL,3.2 µg/mL,3.2 µg/mL,1.6 µg/mL,1.6 µg/mL
CCc1nc2c(o1)C(=O)C(Nc1ccc([N+](=O)[O-])cc1)=C(Br)C2=O,50 µg/mL,50 µg/mL,50 µg/mL,25 µg/mL,25 µg/mL,25 µg/mL
